Drawing on ChEMBL document CHEMBL4270485, “Determination of Gymnemic Acid I as a Protein Biosynthesis Inhibitor Using Chemical Proteomics” (J Nat Prod, 2017), this text covers inhibition and Drug uptake for one molecule.

For one series, the system named is HeLa. Put plainly: Inhibition of protein synthesis in human HeLa cells at 50 to 500 uM pre-incubated for 1 hr before L-[35S]-cysteine and L-[35S]-methionine addition and measured after 1 hr by Comassie staining based autoradiography. The class given is functional, cell-based.
Series [1] in a line: Drug internalization in human HeLa cells at 1 uM by RP-HPLC-MS analysis. The class given is ADME, cell-based.

Molecules are shown by their SMILES. Calls of active or inactive are those of the source. The calls are words filed in the database; no cut-off is given here.

Turning to `C/C=C(\C)C(=O)O[C@H]1[C@H](O)[C@]2(COC(C)=O)[C@@H](O)C[C@]3(C)C(=CC[C@@H]4[C@@]5(C)CC[C@H](O[C@@H]6O[C@H](C(=O)NCC)[C@@H](O)[C@H](O)[C@H]6O)[C@@](C)(CO)[C@@H]5CC[C@]43C)[C@@H]2CC1(C)C`, in the series on HeLa, the inhibition result was “inactive”. In series [1], this molecule came in with a Drug uptake of 15%.
